Laboratory results published in ChEMBL document CHEMBL3044811, “Efficacy of grain protectants against four psocid species on maize, rice and wheat” (2009).
Calls of active or inactive are those of the source. The rule behind the calls is not given here.

Tests used:
Lepinotus reticulatus [1] = assay: Insecticidal activity against Lepinotus reticulatus in compound pre-treated rice grains assessed as effect on progeny production at 2.2 ppm after 30 days; type: functional, organism-based
Liposcelis entomophila [2] = assay: Insecticidal activity against Liposcelis entomophila in compound pre-treated rice grains assessed as effect on progeny production at 2.2 ppm after 30 days; type: functional, organism-based
Lepinotus reticulatus [3] = assay: Insecticidal activity against Lepinotus reticulatus in compound pre-treated rice grains assessed as mortality at 2.2 ppm after 14 days (reference value: 15.5 +/-4.1%); type: functional
Lepinotus reticulatus [4] = assay: Insecticidal activity against Lepinotus reticulatus in compound pre-treated rice grains assessed as mortality at 2.2 ppm after 7 days (reference value: 6.8 +/-2.4%); type: functional
[5] = test system: Liposcelis bostrychophila; assay: Insecticidal activity against Liposcelis bostrychophila (booklice) in compound pre-treated maize grains assessed as mortality at 1.6 ppm after 14 days (reference value: 13.5 +/-5.3%); type: functional
[6] = test system: Liposcelis bostrychophila; assay: Insecticidal activity against Liposcelis bostrychophila (booklice) in compound pre-treated maize grains assessed as mortality at 1.6 ppm after 7 days (reference value: 8.9 +/-2.6%); type: functional
Lepinotus reticulatus [7] = assay: Insecticidal activity against Lepinotus reticulatus in compound pre-treated wheat grains assessed as mortality at 1.6 ppm after 7 days (reference value: 10.0 +/-5.3%); type: functional
[8] = test system: Liposcelis bostrychophila; assay: Insecticidal activity against Liposcelis bostrychophila (booklice) in compound pre-treated wheat grains assessed as effect on progeny production at 1.6 ppm after 30 days; type: functional, organism-based
Lepinotus reticulatus [9] = assay: Insecticidal activity against Lepinotus reticulatus in compound pre-treated wheat grains assessed as decrease in progeny production at 1.6 ppm after 30 days; type: functional, organism-based
Liposcelis entomophila [10] = assay: Insecticidal activity against Liposcelis entomophila in compound pre-treated maize grains assessed as mortality at 1.6 ppm after 14 days (reference value: 14.4 +/-4.1%); type: functional
Liposcelis paeta [11] = assay: Insecticidal activity against Liposcelis paeta in compound pret-reated wheat grains assessed as mortality at 1.6 ppm after 7 days (reference value: 7.8 +/-3.2%); type: functional; conditions: 168 h
Lepinotus reticulatus [12] = assay: Insecticidal activity against Lepinotus reticulatus in compound pre-treated maize grains assessed as mortality at 1.6 ppm after 7 days (reference value: 34.4 +/-11.4%); type: functional
Lepinotus reticulatus [13] = assay: Insecticidal activity against Lepinotus reticulatus in compound pre-treated wheat grains assessed as mortality at 1.6 ppm after 14 days (reference value: 21.1 +/-7.4%); type: functional
Lepinotus reticulatus [14] = assay: Insecticidal activity against Lepinotus reticulatus in compound pre-treated maize grains assessed as mortality at 1.6 ppm after 14 days (reference value: 61.1 +/-11.9%); type: functional
Liposcelis paeta [15] = assay: Insecticidal activity against Liposcelis paeta in compound pret-reated maize grains assessed as mortality at 1.6 ppm after 7 days (reference value: 13.3 +/-3.3%); type: functional; conditions: 168 h
[16] = test system: Liposcelis bostrychophila; assay: Insecticidal activity against Liposcelis bostrychophila (booklice) in compound pre-treated maize grains assessed as decrease in progeny production at 1.6 ppm after 30 days; type: functional, organism-based
Liposcelis entomophila [17] = assay: Insecticidal activity against Liposcelis entomophila in compound pre-treated rice grains assessed as mortality at 2.2 ppm after 14 days (reference value: 10.0 +/-4.7%); type: functional
Liposcelis entomophila [18] = assay: Insecticidal activity against Liposcelis entomophila in compound pre-treated rice grains assessed as mortality at 2.2 ppm after 7 days (reference value: 3.3 +/-2.6%); type: functional
Liposcelis entomophila [19] = assay: Insecticidal activity against Liposcelis entomophila in compound pre-treated maize grains assessed as decrease in progeny production at 1.6 ppm after 30 days; type: functional, organism-based
[20] = test system: Liposcelis bostrychophila; assay: Insecticidal activity against Liposcelis bostrychophila (booklice) in compound pre-treated rice grains assessed as mortality at 2.2 ppm after 7 days (reference value: 8.9 +/-4.5%); type: functional
[21] = test system: Liposcelis bostrychophila; assay: Insecticidal activity against Liposcelis bostrychophila (booklice) in compound pre-treated rice grains assessed as mortality at 2.2 ppm after 14 days (reference value: 9.7 +/-2.4%); type: functional
Liposcelis entomophila [22] = assay: Insecticidal activity against Liposcelis entomophila in compound pre-treated maize grains assessed as mortality at 1.6 ppm after 7 days (reference value: 15.6 +/-6.9%); type: functional
Liposcelis entomophila [23] = assay: Insecticidal activity against Liposcelis entomophila in compound pre-treated wheat grains assessed as decrease in progeny production at 1.6 ppm after 30 days; type: functional, organism-based
Lepinotus reticulatus [24] = assay: Insecticidal activity against Lepinotus reticulatus in compound pre-treated maize grains assessed as decrease in progeny production at 1.6 ppm after 30 days; type: functional, organism-based
Liposcelis entomophila [25] = assay: Insecticidal activity against Liposcelis entomophila in compound pre-treated wheat grains assessed as mortality at 1.6 ppm after 14 days (reference value: 13.3 +/-4.7%); type: functional
Liposcelis paeta [26] = assay: Insecticidal activity against Liposcelis paeta in compound pre-treated rice grains assessed as mortality at 2.2 ppm after 14 days (reference value: 3.4 +/-1.6%); type: functional
Liposcelis paeta [27] = assay: Insecticidal activity against Liposcelis paeta in compound pre-treated rice grains assessed as mortality at 2.2 ppm after 7 days (reference value: 3.3 +/-1.7%); type: functional
[28] = test system: Liposcelis bostrychophila; assay: Insecticidal activity against Liposcelis bostrychophila (booklice) in compound pre-treated wheat grains assessed as mortality at 1.6 ppm after 7 days (reference value: 3.3 +/-1.7%); type: functional
Liposcelis entomophila [29] = assay: Insecticidal activity against Liposcelis entomophila in compound pre-treated wheat grains assessed as mortality at 1.6 ppm after 7 days (reference value: 5.6 +/-2.9%); type: functional
[30] = test system: Liposcelis bostrychophila; assay: Insecticidal activity against Liposcelis bostrychophila (booklice) in compound pre-treated wheat grains assessed as mortality at 1.6 ppm after 14 days (reference value: 6.8 +/-3.3%); type: functional
[31] = test system: Liposcelis bostrychophila; assay: Insecticidal activity against Liposcelis bostrychophila (booklice) in compound pre-treated rice grains assessed as effect on progeny production at 2.2 ppm after 30 days; type: functional, organism-based
Liposcelis paeta [32] = assay: Insecticidal activity against Liposcelis paeta in compound pre-treated wheat grains assessed as mortality at 1.6 ppm after 14 days (reference value: 5.6 +/-1.8%); type: functional
Liposcelis paeta [33] = assay: Insecticidal activity against Liposcelis paeta in compound pre-treated maize grains assessed as mortality at 1.6 ppm after 14 days (reference value: 14.1 +/-4.1%); type: functional

Structure (SMILES): C=C/C=C\CC1=C(C)[C@@H](OC(=O)[C@@H]2[C@@H](/C=C(\C)C(=O)OC)C2(C)C)CC1=O [PYRETHRIN]
- inhibition (Lepinotus reticulatus [1]): inactive
- inhibition (Liposcelis entomophila [2]): inactive
- mortality at 2.2 ppm (Lepinotus reticulatus [3]): 14.3%
- mortality at 2.2 ppm (Lepinotus reticulatus [4]): 23.4%
- mortality at 1.6 ppm [5]: 23.3%
- mortality at 1.6 ppm [6]: 18.9%
- mortality at 1.6 ppm (Lepinotus reticulatus [7]): 41.1%
- inhibition [8]: inactive
- inhibition (Lepinotus reticulatus [9]): Active
- mortality at 1.6 ppm (Liposcelis entomophila [10]): 60%
- mortality at 1.6 ppm (Liposcelis paeta [11]): 14.5%
- mortality at 1.6 ppm (Lepinotus reticulatus [12]): 57.8%
- mortality at 1.6 ppm (Lepinotus reticulatus [13]): 65.7%
- mortality at 1.6 ppm (Lepinotus reticulatus [14]): 86.7%
- mortality at 1.6 ppm (Liposcelis paeta [15]): 10%
- inhibition [16]: Active
- mortality at 2.2 ppm (Liposcelis entomophila [17]): 16.7%
- mortality at 2.2 ppm (Liposcelis entomophila [18]): 8.9%
- inhibition (Liposcelis entomophila [19]): Active
- mortality at 2.2 ppm [20]: 23.3%
- mortality at 2.2 ppm [21]: 26.5%
- mortality at 1.6 ppm (Liposcelis entomophila [22]): 17.8%
- inhibition (Liposcelis entomophila [23]): Active
- inhibition (Lepinotus reticulatus [24]): Active
- mortality at 1.6 ppm (Liposcelis entomophila [25]): 55.6%
- mortality at 2.2 ppm (Liposcelis paeta [26]): 31.1%
- mortality at 2.2 ppm (Liposcelis paeta [27]): 15.7%
- mortality at 1.6 ppm [28]: 17.8%
- mortality at 1.6 ppm (Liposcelis entomophila [29]): 47.8%
- mortality at 1.6 ppm [30]: 30%
- inhibition [31]: inactive
- mortality at 1.6 ppm (Liposcelis paeta [32]): 14.4%
- mortality at 1.6 ppm (Liposcelis paeta [33]): 18.9%
